Key:
C. elegans [1] = experiment: Body size analysis; format: in vivo, Caenorhabditis elegans
Protocol: […] The treatment plates included NGA with 0.5% (v/v) DMSO (vehicle control, Ctl), 250 μM SIH, or 200 μM Lip-1 (as described above).
Cohorts of approximately 100 animals were transferred into a 1.5 ml centrifuge tube containing 400 μL S-basal. Following a brief centrifugation excess S-basal was removed leaving the animals suspended in 50 μL. Animals were euthanized and straightened by a 15 second exposure to 60° C. (using a heated water bath). Samples were then mounted between glass slides and a cover slip and immediately imaged. Micrographs were collected using a Leica M80 stereomicroscope and Leica DFC290 HD 3 MP) digital camera. Pixel sizes were defined using a calibrated 25 μm grid slide (Microbrightfield, Inc). Size and shape metrics were extracted from brightfield images were analyzed using the WormSizer plugin for ImageJ.
Data of estimated adult body length and volume were initially assessed for normality using a D'Agostino & Pearson test. Based on this analysis a nonparametric Kruskal-Wallis Analysis of Variance (ANOVA) was performed followed by a Dunn-Šidák test for multiple comparisons (as implemented by Prism v7.0a, GraphPad Software). There was a significant difference between body length (H(10)=432.6, p<0.0001) amongst the groups measured.

C. elegans [2] = experiment: Movement; format: in vivo, Caenorhabditis elegans; conditions: for maximum velocity, 25% Percentile / maximum velocity, 75% Percentile / maximum velocity, Maximum / maximum velocity, Mean / maximum velocity, Median / maximum velocity, Minimum / mean velocity, 25% Percentile / mean velocity, 75% Percentile / mean velocity, Maximum / mean velocity, Mean / mean velocity, Median / mean velocity, Minimum / total distance traveled, 25% Percentile / total distance traveled, 75% Percentile / total distance traveled, Maximum / total distance traveled, Mean / total distance traveled, Median / total distance traveled, Minimum: 250 μM SIH or 200 μM Lip-1, 25° C; for total distance traveled, 25% Percentile / total distance traveled, 75% Percentile / total distance traveled, Maximum / total distance traveled, Mean / total distance traveled, Median / total distance traveled, Minimum: 30 second recording; for age-related decline in mean velocity: Kruskal-Wallis ANOVA H(7)=339.2, p<0.0001; for maximum velocity of aging animals: in vivo
Protocol: A developmentally synchronous population, derived from eggs laid over a 2-hour window, were cultured on NGA media at 25° C. for 48 h, and then as young adult worms were transferred onto three treatment plates for an additional 24 h. The treatment plates included NGM+0.5% (v/v) DMSO (vehicle control, Ctl), NGM+250 μM SIH, and NGM+200 μM Lip-1 (as described above).
Single worms were transferred to a 55 mm NGA assay plate devoid of a bacterial lawn, without a lid, and left to recover from the transfer for 2 minutes. Movement of the adults was then recorded using a stereomicroscope (Leica M80) with transmitted illumination from below. A 30 second video recording was captured using a 3 MP DFC290 HD digital camera (Leica Microsystems) at a rate of 30 frames per second. Pixel length was calibrated using a 25 μm grid slide (Microbrightfield, Inc). Recorded series were analysed using the wrMTrck plugin for ImageJ (www.phage.dk/plugins) and Fiji (a distribution of ImageJ).
The maximum velocity achieved was expressed as mm per second (as derived from the distance between displaced centroids per second). Additional metrics of movement were determined including mean velocity (mm s^−1) and (total) distance travelled (mm). These variables were collated in Prism (v7.0a GraphPad Software) and presented as a scatter plot with medians and interquartile range.

Which results are given for `O=C(N/N=C/c1ccccc1O)c1ccncc1` [SIH, Salicylaldehyde isonicotinoyl hydrazone]?
body volume (C. elegans [1]; Day 4): greater volume than both control and Lip-1 treated worms; body length, mean±SD (C. elegans [1]; Day 8, control 1440±123 μm, p<0.001): 1696±64 μm; body length versus similarly aged controls (C. elegans [1]; after 4 days and 8 days of intervention): significantly longer; body volume over time (C. elegans [1]; in vivo): increase in body volume between Days 1 and 4, but not thereafter; maximum velocity, 25% Percentile (C. elegans [2]; Day 4): 0.3442 mm per second; maximum velocity, 75% Percentile (C. elegans [2]; Day 4): 0.4755 mm per second; maximum velocity, Maximum (C. elegans [2]; Day 4): 0.7127 mm per second; maximum velocity, Mean (C. elegans [2]; Day 4): 0.392 mm per second; maximum velocity, Median (C. elegans [2]; Day 4): 0.3733 mm per second; maximum velocity, Minimum (C. elegans [2]; Day 4): 0.105 mm per second; mean velocity, 25% Percentile (C. elegans [2]; Day 4): 0.1307 mm s-1; mean velocity, 75% Percentile (C. elegans [2]; Day 4): 0.1824 mm s-1; mean velocity, Maximum (C. elegans [2]; Day 4): 0.2629 mm s-1; mean velocity, Mean (C. elegans [2]; Day 4): 0.1528 mm s-1; mean velocity, Median (C. elegans [2]; Day 4): 0.1545 mm s-1; mean velocity, Minimum (C. elegans [2]; Day 4): 0.02713 mm s-1; total distance traveled, 25% Percentile (C. elegans [2]; Day 4): 3.977 mm; total distance traveled, 75% Percentile (C. elegans [2]; Day 4): 5.513 mm; total distance traveled, Maximum (C. elegans [2]; Day 4): 6.951 mm; total distance traveled, Mean (C. elegans [2]; Day 4): 4.619 mm; total distance traveled, Median (C. elegans [2]; Day 4): 4.766 mm; total distance traveled, Minimum (C. elegans [2]; Day 4): 0.8402 mm; maximum velocity, 25% Percentile (C. elegans [2]; Day 8): 0.174 mm per second; maximum velocity, 75% Percentile (C. elegans [2]; Day 8): 0.3506 mm per second; maximum velocity, Maximum (C. elegans [2]; Day 8): 0.6458 mm per second; maximum velocity, Mean (C. elegans [2]; Day 8): 0.2847 mm per second; maximum velocity, Median (C. elegans [2]; Day 8): 0.2513 mm per second; maximum velocity, Minimum (C. elegans [2]; Day 8): 0.1028 mm per second; mean velocity, 25% Percentile (C. elegans [2]; Day 8): 0.04028 mm s-1; mean velocity, 75% Percentile (C. elegans [2]; Day 8): 0.1029 mm s-1; mean velocity, Maximum (C. elegans [2]; Day 8): 0.1739 mm s-1; mean velocity, Mean (C. elegans [2]; Day 8): 0.07262 mm s-1; mean velocity, Median (C. elegans [2]; Day 8): 0.05813 mm s-1; mean velocity, Minimum (C. elegans [2]; Day 8): 0.02239 mm s-1; total distance traveled, 25% Percentile (C. elegans [2]; Day 8): 1.224 mm; total distance traveled, 75% Percentile (C. elegans [2]; Day 8): 3.193 mm; total distance traveled, Maximum (C. elegans [2]; Day 8): 5.235 mm; total distance traveled, Mean (C. elegans [2]; Day 8): 2.192 mm; total distance traveled, Median (C. elegans [2]; Day 8): 1.784 mm; total distance traveled, Minimum (C. elegans [2]; Day 8): 0.6912 mm; age-related decline in mean velocity (C. elegans [2]): attenuates the age-related decline in mean velocity; maximum velocity of aging animals (C. elegans [2]): markedly improved

With `Clc1cccc(CNC2=Nc3ccccc3NC23CCNCC3)c1` [Lip-1, N-[(3-chlorophenyl)methyl]-spiro[piperidine-4,2′(1′H)-quinoxalin]-3′-amine] as the molecule, how does the length or volume (C. elegans [1]; in vivo) read?
The length or volume was “no effect on length or volume”.

And the “maximum velocity, 25% Percentile” value (C. elegans [2]; Day 4)?
The value was 0.2711 mm per second.

And the “maximum velocity, 75% Percentile” value (C. elegans [2]; Day 4)?
The value was 0.4861 mm per second.

What about the “maximum velocity, Maximum” value (C. elegans [2]; Day 4) of the same molecule?
The value was 0.7204 mm per second.

And the “maximum velocity, Mean” value (C. elegans [2]; Day 4)?
Its value is 0.37 mm per second.

And the “maximum velocity, Median” value (C. elegans [2]; Day 4)?
Its value is 0.3762 mm per second.

What about the “maximum velocity, Minimum” value (C. elegans [2]; Day 4) of the same molecule?
Its value is 0.06351 mm per second.

And the “mean velocity, 25% Percentile” value (C. elegans [2]; Day 4)?
Its value is 0.05892 mm s-1.

And the “mean velocity, 75% Percentile” value (C. elegans [2]; Day 4)?
Its value is 0.1839 mm s-1.

What about the “mean velocity, Maximum” value (C. elegans [2]; Day 4) of the same molecule?
Its value is 0.2606 mm s-1.

What about the “mean velocity, Mean” value (C. elegans [2]; Day 4) of the same molecule?
The value was 0.1244 mm s-1.

And the “mean velocity, Median” value (C. elegans [2]; Day 4)?
Its value is 0.1349 mm s-1.

What about the “mean velocity, Minimum” value (C. elegans [2]; Day 4) of the same molecule?
Its value is 0.01219 mm s-1.

What about the “total distance traveled, 25% Percentile” value (C. elegans [2]; Day 4) of the same molecule?
The value was 1.797 mm.

What about the “total distance traveled, 75% Percentile” value (C. elegans [2]; Day 4) of the same molecule?
The value was 5.397 mm.

And the “total distance traveled, Maximum” value (C. elegans [2]; Day 4)?
The value was 7.817 mm.

And the “total distance traveled, Mean” value (C. elegans [2]; Day 4)?
Its value is 3.685 mm.

And the “total distance traveled, Median” value (C. elegans [2]; Day 4)?
The value was 4.126 mm.

And the “total distance traveled, Minimum” value (C. elegans [2]; Day 4)?
The value was 0.07633 mm.

What about the “maximum velocity, 25% Percentile” value (C. elegans [2]; Day 8) of the same molecule?
Its value is 0.1478 mm per second.

And the “maximum velocity, 75% Percentile” value (C. elegans [2]; Day 8)?
The value was 0.2452 mm per second.

What about the “maximum velocity, Maximum” value (C. elegans [2]; Day 8) of the same molecule?
Its value is 0.5563 mm per second.

And the “maximum velocity, Mean” value (C. elegans [2]; Day 8)?
The value was 0.2084 mm per second.

And the “maximum velocity, Median” value (C. elegans [2]; Day 8)?
Its value is 0.1922 mm per second.

And the “maximum velocity, Minimum” value (C. elegans [2]; Day 8)?
Its value is 0.05622 mm per second.

What about the “mean velocity, 25% Percentile” value (C. elegans [2]; Day 8) of the same molecule?
The value was 0.03386 mm s-1.

What about the “mean velocity, 75% Percentile” value (C. elegans [2]; Day 8) of the same molecule?
The value was 0.06818 mm s-1.

What about the “mean velocity, Maximum” value (C. elegans [2]; Day 8) of the same molecule?
The value was 0.1644 mm s-1.

And the “mean velocity, Mean” value (C. elegans [2]; Day 8)?
The value was 0.05407 mm s-1.

And the “mean velocity, Median” value (C. elegans [2]; Day 8)?
Its value is 0.04763 mm s-1.

What about the “mean velocity, Minimum” value (C. elegans [2]; Day 8) of the same molecule?
Its value is 0.008319 mm s-1.

What about the “total distance traveled, 25% Percentile” value (C. elegans [2]; Day 8) of the same molecule?
Its value is 1.001 mm.

What about the “total distance traveled, 75% Percentile” value (C. elegans [2]; Day 8) of the same molecule?
The value was 2.092 mm.

And the “total distance traveled, Maximum” value (C. elegans [2]; Day 8)?
Its value is 4.926 mm.

What about the “total distance traveled, Mean” value (C. elegans [2]; Day 8) of the same molecule?
Its value is 1.627 mm.

And the “total distance traveled, Median” value (C. elegans [2]; Day 8)?
Its value is 1.451 mm.

What about the “total distance traveled, Minimum” value (C. elegans [2]; Day 8) of the same molecule?
The value was 0.2338 mm.

What about the “age-related decline in mean velocity” value (C. elegans [2]) of the same molecule?
The value was “attenuates the age-related decline in mean velocity”.

And the “maximum velocity of aging animals” value (C. elegans [2])?
The value was “markedly improved”.
